Experimental data published in article PMC12655633, “Simultaneous Quantification of Multiple Analytes in Rat Plasma by UHPLC–MS/MS Following Oral Administration of Gastrodiae Rhizoma Extract for Pharmacokinetic Evaluation” (Molecules, 2025).

Assay: Pharmacokinetic study in rats after oral administration of GR extract (UHPLC-MS/MS of plasma)
Format: in vivo, Sprague-Dawley rats
Settings: for plasma concentration relative to LLOQ: rat plasma following gavage of GR extract; for AUC(0-inf) / AUC(0-t) / Cmax / Tmax / k el / half-life: male, Sprague-Dawley, po; for AUC(0-inf) / AUC(0-t) / Cmax / Tmax / k el / half-life / CL (clearance) / T1/2 / Vz (apparent volume of distribution): rat plasma, GR extract 9.6 g/kg intragastric gavage, mean ± SD, n = 6; for k el: read-out: λz (terminal elimination rate constant) (converted); for half-life: rat, plasma, 9.6 g/kg
Protocol: To each 100 μL plasma sample, 20 μL of methanol and 20 μL of IS (astragalin, 1 μg/mL) were added and vortexed for 1 min. Extraction was carried out with 800 μL of methanol, followed by vortexing for 5 min at room temperature. The sample was centrifuged at 12,000× g for 10 min. Subsequently, 750 µL of supernatant was transferred to a fresh tube and completely dried under flow nitrogen. The residue was reconstituted in 150 μL of 50% methanol (v/v), vortexed for 5 min, and centrifuged for 10 min. Finally, the resulting supernatant was injected into the UHPLC-MS/MS instrument.
In this study, six SPF-grade male Sprague-Dawley rats (six weeks old, 220 ± 10 g), supplied by Beijing HUAFUKANG Bioscience Co., Inc. (Beijing, China), were housed for seven days under controlled conditions (23 ± 2 °C, 50 ± 10% relative humidity) with ad libitum access to food and water. All rats underwent a 12 h fasting period before dosing, but maintained free access to water. This study’s animal care protocols and experimental procedures adhered to institutional policies and were formally authorized by the Animal Ethics Review Committee of Tianjin University of Traditional Chinese Medicine (Tianjin, China; Ref. TCM-LAEC2025003w1430). Each rat received a GR suspension at a dosage of 9.6 g/kg via intragastric gavage. Prior to dosing, 0.2 mL of blood was drawn from the retro-orbital plexus into a heparin-coated tube. Subsequent samples were collected at 0, 0.03, 0.08, 0.17, 0.25, 0.5, 0.75, 1, 2, 4, 6, 8, 12, 24, 36, and 48 h post-dose. Plasma was separated by centrifugation (6000× g, 10 min, 4 °C) and stored at −80 °C until further analysis.
Plasma concentrations of the fourteen target analytes were determined using the MassHunter Workstation (Agilent, USA; ver. B.09.00). Pharmacokinetic analysis was conducted with DAS software (Medical College of Wannan, Wuhu, Anhui, China; v. 3.0) using non-compartmental model to calculate pharmacokinetic parameters, including Cmax, Tmax, AUC(0–t), AUC(0–∞), clearance (CL), the apparent volume of distribution (Vz), and terminal elimination rate constant (λz) for each analyte. All parameters were summarized as mean ± standard deviation (SD) (n = 6), with the SD representing inter-individual variability in the pharmacokinetic behavior.

Structure (SMILES) | AUC(0-inf) [ng·h/mL] | AUC(0-t) [ng·h/mL] | Cmax [ng/mL] | Tmax [h] | k el [s⁻¹] | half-life [h] | CL (clearance) [mL/min/kg] | Vz (apparent volume of distribution) [L/kg] | plasma concentration relative to LLOQ | T1/2 [h]
COc1cc(C=O)cc(OC)c1O [Syringaldehyde] |  |  |  |  |  |  |  |  | below the LLOQ at the majority of time points | 
O=C(O)CC(O)(CC(=O)OCc1ccc(O[C@@H]2O[C@H](CO)[C@@H](O)[C@H](O)[C@H]2O)cc1)C(=O)OCc1ccc(O[C@@H]2O[C@H](CO)[C@@H](O)[C@H](O)[C@H]2O)cc1 (some centres unmarked) [Parishin B] | 460 ± 222 | 460 ± 222 | 319 ± 157 | 0.1 ± 0.06 | 7.22e-05 | 2.67 ± 0.26 | 899.2 ± 438.3 | 215.10 ± 119.59 |  | 
O=C(CC(O)(CC(=O)OCc1ccc(O[C@@H]2O[C@H](CO)[C@@H](O)[C@H](O)[C@H]2O)cc1)C(=O)OCc1ccc(O[C@@H]2O[C@H](CO)[C@@H](O)[C@H](O)[C@H]2O)cc1)OCc1ccc(O[C@@H]2O[C@H](CO)[C@@H](O)[C@H](O)[C@H]2O)cc1 [ParishinA, Parishin A] | 572 ± 271 | 531 ± 256 | 210 ± 92.2 | 0.22 ± 0.07 | 1.39e-05 | 3.62 ± 0.26 | 676.3 ± 244.2 | 808.82 ± 409.11 |  | 
O=Cc1ccc(O)c(O)c1 [3,4-Dihydroxybenzaldehyde] |  |  |  |  |  |  |  |  | below the LLOQ at the majority of time points | 
Nc1ncnc2c1ncn2[C@@H]1O[C@H](CO)[C@@H](O)[C@H]1O [Adenosine] |  |  |  |  |  |  |  |  | below the LLOQ at the majority of time points | 
COc1cc2c(cc1OC)[C@@H](Cc1ccc(Oc3cc(C[C@@H]4c5cc(OC)c(OC)cc5CCN4C)ccc3O)cc1)N(C)CC2 [Dauricine] |  |  |  |  |  |  |  |  | below the LLOQ at the majority of time points | 
COc1ccc(-c2cc(=O)c3c(OC)c(OC)c(OC)c(OC)c3o2)cc1OC [Nobiletin] |  |  |  |  |  |  |  |  | below the LLOQ at the majority of time points | 
OCc1ccc(O[C@@H]2O[C@H](CO)[C@@H](O)[C@H](O)[C@H]2O)cc1 [Gastrodin] | 145000 | 143000 | 31500 | 1.5 ± 0.55 | 1.67e-05 | ~8 | 2.33 ± 0.5 | 4.29 ± 3.24 |  | 8.30 ± 1.14

Continued, in another order:

AUC(0-inf) [ng·h/mL] | AUC(0-t) [ng·h/mL] | Cmax [ng/mL] | Tmax [h] | k el [s⁻¹] | half-life [h] | CL (clearance) [mL/min/kg] | Vz (apparent volume of distribution) [L/kg] | Structure (SMILES) | plasma concentration relative to LLOQ | T1/2 [h]
13100 | 11600 | 2350 ± 1100 | 0.75 ± 0.01 | 1.39e-05 | ~8 | 26.3 ± 5.83 | 41.00 ± 29.24 | O=C(O)CC(O)(CC(=O)OCc1ccc(O[C@@H]2O[C@H](CO)[C@@H](O)[C@H](O)[C@H]2O)cc1)C(=O)O (some centres unmarked) [Parishin E] |  | 8.08 ± 3.33
59 ± 18.5 | 59 ± 18.5 | 25 ± 14.2 | 0.5 ± 0.02 | 6.11e-05 | 2.74 ± 0.42 | 6170.7 ± 2057.5 | 1588.63 ± 636.70 | NC(=O)c1cccnc1 [Nicotinamide] |  | 
59.1 ± 21 | 56.7 ± 23.1 | 22.5 ± 3.04 | 0.25 ± 0.01 | 7.78e-05 | 5.86 ± 2.99 | 6285.8 ± 2280.5 | 4220.87 ± 5603.54 | O=Cc1ccc(O)cc1 [p-Hydroxybenzaldehyde] |  | 
1600 ± 384 | 1580 ± 381 | 442 ± 147 | 0.11 ± 0.05 | 4.44e-05 | 6.21 ± 3.33 | 218 ± 47.2 | 116.74 ± 60.67 | O=C(O)c1ccc(O)cc1 [p-Hydroxybenzoic acid] |  | 
674000 | 672000 | 90500 | 1.63 ± 0.59 | 3.89e-05 | 5.31 ± 1.55 | 0.5 ± 0.17 | 0.24 ± 0.10 | OCc1ccc(O)cc1 [p-Hydroxybenzyl alcohol] |  | 
